{"source": "patent US20160199437A1", "about": "“THERAPEUTIC COMPOSITIONS INCLUDING IRON CHELATORS AND USES THEREOF” (priority 2015, published 2016)", "origin": "cited, not measured here", "system": "several mammalian cell types", "conditions": "energy-independent manner; cited from earlier work"}
{"substance": "2′,6′-Dmt-D-Arg-Phe-Lys-NH2", "values": [{"measurement": "penetration of the plasma membrane", "result": "readily penetrates the plasma membrane"}]}
